Reference: patent US6875451B2, “Compositions and methods for the treatment of primary and metastatic neoplastic diseases using arsenic compounds” (PolaRx Biopharmaceuticals Inc., priority 1997, dated 2005)

How the values were obtained:
Format in all cases: cell-based
SK-MEL-2 = test: SRB growth assay, 6 days exposure, melanoma; conditions: SK-MEL-2, 6 days
Protocol: (§1) Arsenic trioxide (1 mg/ml, 10 mg/ampoule, manufactured by Taylor Pharmaceuticals, Decatur, Ill.) was tested at five concentrations each at 10-fold dilutions, i.e., 10^−5, 10^−6, 10^−7, 10^−8 and 10^−9 μg/ml.
(§2) The in vitro tests were performed by incubating the test cells in the presence of the indicated concentration of arsenic trioxide under standard culture conditions for a designated period of time, which is followed by a sulforhodamine B (SRB) protein assay to estimate cell viability or growth. The cell lines are organized into subpanels according to the origin of the cell lines, e.g., leukemia, breast cancer, etc. A description of the cell lines and method of testing is described in Monk et al. (1997, Anticancer Drug Des. 12:533-41) and Weinstein et al., (1997, Science 275:343-9), which are incorporated herein in their entirety.
(§3) The measurement of an effect is expressed in Percentage Growth (PG). The measured effect of the compound on a cell line is calculated according to one or the other of the following two expressions: If (Mean ODtest−Mean ODzero)≧0. then PG=100×(Mean ODtest−Mean ODzero)/(Mean ODctrl−Mean ODzero) If (Mean ODtest−Mean ODzero)<0. then PG=100×(Mean ODtest−Mean ODzero)/(Mean ODzero where: • Mean ODzero=the average of optical density measurements of SRB-derived color just before exposure of cells to the test compounds; • Mean ODtest=the average of optical density measurements of SRB-derived color after exposure of cells to the test compound for a designated period of time; and • Mean ODctrl=the average of optical density measurements of SRB-derived color after with no exposure of cells to the test compound for a designated period of time
(§4) The first two columns describe the subpanel (e.g., leukemia) and cell line (e.g., CCRF-CEM) involved. The next two columns list the Mean ODzero and Mean ODctrl; the next five columns list the Mean ODtest for each of five different concentrations. Each concentration is expressed as the log10 (molar or μg/ml). The next five columns list the calculated PGs for each concentration. The response parameters GI50, TGI and LC50 are interpolated values representing the concentrations at which the PG is +50, 0, and −50, respectively. Sometimes these response parameters cannot be obtained by interpolation. If, for instance, all of the PGs in a given row exceed +50, then none of the three parameters can be obtained by interpolation. In such a case, the value given for each response parameter is the highest concentration tested and is preceded by a “>” sign. This practice is extended similarly to the other possible situations where a response parameter cannot be obtained by interpolation.
(§5) In the first set, the cells from 56 different cancer cell lines were exposed to five concentrations of arsenic trioxide continuously for two days prior to performing the SRB assay. In the second set, the cells from 50 different cell lines (a subset of the first 56 cell lines, plus the renal cancer cell line 786-0) were exposed continuously for six days prior to the SRB assay.

MALMI-3M = test: SRB growth assay, 6 days exposure, melanoma
Protocol: as §1, §2, §3, §4, §5

UACC-62 = test: SRB growth assay, 6 days exposure, melanoma; conditions: UACC-62, 6 days
Protocol: as §1, §2, §3, §4, §5

SK-MEL-5 = test: SRB growth assay, 6 days exposure, melanoma; conditions: SK-MEL-5, 6 days
Protocol: as §1, §2, §3, §4, §5

PC-3 = test: SRB growth assay, 2 days exposure, prostate cancer
Protocol: as §1, §2, §3, §4, §5

DU-145 = test: SRB growth assay, 2 days exposure, prostate cancer
Protocol: as §1, §2, §3, §4, §5

SF-268 = test: SRB growth assay, 6 days exposure, CNS cancer; conditions: SF-268, 6 days
Protocol: as §1, §2, §3, §4, §5

U251 = test: SRB growth assay, 6 days exposure, CNS cancer; conditions: U251, 6 days
Protocol: as §1, §2, §3, §4, §5

SNB-75 = test: SRB growth assay, 6 days exposure, CNS cancer; conditions: SNB-75, 6 days
Protocol: as §1, §2, §3, §4, §5

arsenic trioxide
TGI (SK-MEL-2): 5.63E−07
Percent Growth (SK-MEL-2; Log 10 Concentration −4.9): −100%
Mean Optical Densities (SK-MEL-2; Log 10 Concentration −5.9): 0.128
Percent Growth (SK-MEL-2; Log 10 Concentration −5.9): −40%
Mean Optical Densities (SK-MEL-2; Log 10 Concentration −6.9): 0.426
Percent Growth (SK-MEL-2; Log 10 Concentration −6.9): 74%
Mean Optical Densities (SK-MEL-2; Log 10 Concentration −7.9): 0.462
Percent Growth (SK-MEL-2; Log 10 Concentration −7.9): 87%
Mean Optical Densities (SK-MEL-2; Log 10 Concentration −8.9): 0.491
Percent Growth (SK-MEL-2; Log 10 Concentration −8.9): 97%
TGI (MALMI-3M): 2.78E−06
Mean Optical Densities (MALMI-3M; Log 10 Concentration −4.9): 0.005
Percent Growth (MALMI-3M; Log 10 Concentration −4.9): −96%
Mean Optical Densities (MALMI-3M; Log 10 Concentration −5.9): 0.383
Percent Growth (MALMI-3M; Log 10 Concentration −5.9): 50%
Mean Optical Densities (MALMI-3M; Log 10 Concentration −6.9): 0.823
Percent Growth (MALMI-3M; Log 10 Concentration −6.9): 132%
Mean Optical Densities (MALMI-3M; Log 10 Concentration −7.9): 0.595
Percent Growth (MALMI-3M; Log 10 Concentration −7.9): 90%
Mean Optical Densities (MALMI-3M; Log 10 Concentration −8.9): 0.702
Percent Growth (MALMI-3M; Log 10 Concentration −8.9): 110%
TGI (UACC-62): 2.27E−06
Mean Optical Densities (UACC-62; Log 10 Concentration −4.9): 0.001
Percent Growth (UACC-62; Log 10 Concentration −4.9): −98%
Mean Optical Densities (UACC-62; Log 10 Concentration −5.9): 0.539
Percent Growth (UACC-62; Log 10 Concentration −5.9): 34%
Mean Optical Densities (UACC-62; Log 10 Concentration −6.9): 1.409
Percent Growth (UACC-62; Log 10 Concentration −6.9): 92%
Mean Optical Densities (UACC-62; Log 10 Concentration −7.9): 1.460
Percent Growth (UACC-62; Log 10 Concentration −7.9): 95%
Mean Optical Densities (UACC-62; Log 10 Concentration −8.9): 1.546
Percent Growth (UACC-62; Log 10 Concentration −8.9): 101%
TGI (SK-MEL-5): 4.07E−06
Mean Optical Densities (SK-MEL-5; Log 10 Concentration −4.9): 0.013
Percent Growth (SK-MEL-5; Log 10 Concentration −4.9): −93%
Mean Optical Densities (SK-MEL-5; Log 10 Concentration −5.9): 1.846
Percent Growth (SK-MEL-5; Log 10 Concentration −5.9): 96%
Mean Optical Densities (SK-MEL-5; Log 10 Concentration −6.9): 1.929
Percent Growth (SK-MEL-5; Log 10 Concentration −6.9): 101%
Mean Optical Densities (SK-MEL-5; Log 10 Concentration −7.9): 1.864
Percent Growth (SK-MEL-5; Log 10 Concentration −7.9): 97%
Mean Optical Densities (SK-MEL-5; Log 10 Concentration −8.9): 1.935
Percent Growth (SK-MEL-5; Log 10 Concentration −8.9): 102%
TGI (PC-3): 0.011 ng/mL
Percent Growth (PC-3; log10 conc −4.9): −4%
Percent Growth (PC-3; log10 conc −5.9): 67%
Percent Growth (PC-3; log10 conc −6.9): 88%
Percent Growth (PC-3; log10 conc −7.9): 91%
Percent Growth (PC-3; log10 conc −8.9): 103%
TGI (DU-145): >0.0126 ng/mL
Percent Growth (DU-145; log10 conc −4.9): 64%
Percent Growth (DU-145; log10 conc −5.9): 96%
Percent Growth (DU-145; log10 conc −6.9): 106%
Percent Growth (DU-145; log10 conc −7.9): 131%
Percent Growth (DU-145; log10 conc −8.9): 91%
TGI (SF-268): 2.57E−06
Mean Optical Densities (SF-268; Log 10 Concentration −4.9): −0.004
Percent Growth (SF-268; Log 10 Concentration −4.9): −100%
Mean Optical Densities (SF-268; Log 10 Concentration −5.9): 0.387
Percent Growth (SF-268; Log 10 Concentration −5.9): 45%
Mean Optical Densities (SF-268; Log 10 Concentration −6.9): 0.356
Percent Growth (SF-268; Log 10 Concentration −6.9): 41%
Mean Optical Densities (SF-268; Log 10 Concentration −7.9): 0.381
Percent Growth (SF-268; Log 10 Concentration −7.9): 44%
Mean Optical Densities (SF-268; Log 10 Concentration −8.9): 0.990
Percent Growth (SF-268; Log 10 Concentration −8.9): 126%
TGI (U251): 8.51E−07
Mean Optical Densities (U251; Log 10 Concentration −4.9): −0.012
Percent Growth (U251; Log 10 Concentration −4.9): −100%
Mean Optical Densities (U251; Log 10 Concentration −5.9): 0.088
Percent Growth (U251; Log 10 Concentration −5.9): −17%
Mean Optical Densities (U251; Log 10 Concentration −6.9): 1.908
Percent Growth (U251; Log 10 Concentration −6.9): 81%
Mean Optical Densities (U251; Log 10 Concentration −7.9): 2.018
Percent Growth (U251; Log 10 Concentration −7.9): 86%
Mean Optical Densities (U251; Log 10 Concentration −8.9): 2.129
Percent Growth (U251; Log 10 Concentration −8.9): 91%
TGI (SNB-75): 3.80E−06
Mean Optical Densities (SNB-75; Log 10 Concentration −4.9): 0.028
Percent Growth (SNB-75; Log 10 Concentration −4.9): −79%
Mean Optical Densities (SNB-75; Log 10 Concentration −5.9): 0.815
Percent Growth (SNB-75; Log 10 Concentration −5.9): 73%
Mean Optical Densities (SNB-75; Log 10 Concentration −6.9): 1.024
Percent Growth (SNB-75; Log 10 Concentration −6.9): 96%
Mean Optical Densities (SNB-75; Log 10 Concentration −7.9): 1.033
Percent Growth (SNB-75; Log 10 Concentration −7.9): 97%
Mean Optical Densities (SNB-75; Log 10 Concentration −8.9): 1.143
Percent Growth (SNB-75; Log 10 Concentration −8.9): 108%
